Earlier results in patent publication US20050287587A1, “Production of glycosylated macrolides in E. coli” (The Board of Trustees of the Leland Stanford Junior …, priority 2002, published 2005).

Conditions: general background statement, no strain or method given

**Q.** For `CC[C@H]1OC(=O)[C@H](C)[C@@H](O)[C@H](C)[C@@H](O)[C@@H](C)C[C@@H](C)C(=O)[C@H](C)[C@@H](O)[C@H]1C` [6-deoxyerythronolide B], which antibacterial activity is on record?
**A.** The antibacterial activity was “no antibacterial activity”.
